These are literature values, as cited in patent US6342520B1, “Locally injectable chemotherapeutics” (priority 2000, dated 2002).

For this data set the following is noted: Phase II clinical trials, administration by general circulation.

On to `CC(=O)OC[C@]12CCC(C)=C[C@H]1O[C@@H]1[C@H](O)[C@@H](OC(C)=O)[C@@]2(C)[C@]12CO2` [Anguidine], for which the hematologic toxicity entry is listed as “considerable hematologic toxicity” and the “overall tumor response rate” value is on record as “low”.
